Results reported in patent US6211170A, “Azetidinone derivatives for the treatment of HCMV infections” (Boehringer Ingelheim (Canada) Ltd., priority 1998, dated 2001).
Like-named read-outs stand apart in the source and are kept apart here.

What was measured:
[1] = tested on: HCMV (strain AD169, ATCC VR-538); experiment: Plaque Reduction Assay (PRA) in HCMV-infected Hs-68 cells; assay type: cell-based, human cytomegalovirus (HCMV)
Procedure: B. Plaque Reduction Assay (PRA):
Hs-68 cells (ATCC # CRL 1635) were seeded in 12-well plates at 83,000 cells/well in 1 mL of DMEM medium (Gibco Canada Inc.) supplemented with 10% fetal bovine serum (FBS, Gibco Canada Inc.). The plates were incubated for 3 days at 37° to allow the cells to reach 80-90% confluency prior to the assay.
The medium was removed from the cells by aspiration. The cells were then infected with approximately 50 PFU of HCMV (strain AD169, ATCC VR-538) in DMEM medium supplemented with 5% inactivated FBS (assay medium). (DMEM medium is commercially available and has been described by R. Dulbecco et al., Virology 1959, 8, 396.) The virus was allowed to adsorb to cells for 2 h at 37°. Following viral adsorption, the medium was removed from the wells by aspiration. The cells were then incubated with or without 1 mL of appropriate concentrations of test reagent in assay medium. Occasionally, test compounds were added 24 h post-infection. After 4 days of incubation at 37°, the medium was exchanged with fresh medium containing test compound and 4 days later the cells were fixed with 1% aqueous formaldehyde and stained with a 2% violet solution in 20% ethanol in water. Microscopic plaques were counted using a stereomicroscope. Drug effects were calculated as a percent reduction in the number of plaques in the presence of each drug concentration compared to the number observed in the absence of drug. Ganciclovir was used as a positive control in all experiments.

HCMV NO protease = molecular target: T1, HCMV NO protease (Human cytomegalovirus, UniProt P16753); experiment: HCMV NO Protease Assay (fluorogenic substrate cleavage); assay type: biochemical; settings: HCMV NO protease 100 nM, substrate 5 μM, pH 8, 2.5 h at 30°
T1 construct: HCMV NO protease
T1 sequence (P16753 1-256): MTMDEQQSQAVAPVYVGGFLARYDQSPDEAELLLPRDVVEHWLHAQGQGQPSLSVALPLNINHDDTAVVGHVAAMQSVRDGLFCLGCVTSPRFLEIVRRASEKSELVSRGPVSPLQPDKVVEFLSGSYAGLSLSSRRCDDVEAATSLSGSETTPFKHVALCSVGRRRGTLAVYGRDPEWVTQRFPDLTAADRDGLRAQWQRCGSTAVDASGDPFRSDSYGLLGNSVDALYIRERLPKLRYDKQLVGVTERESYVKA
Procedure: This particular assay determines the ability of a test compound to inhibit the activity (IC50) of HCMV protease. More specifically, in the assay described herein, the inhibitory activity of the test compound is evaluated on the basis of its ability to interfere with the HCMV NO protease cleavage of a fluorogenic peptide substrate which in turn is based on the maturation cleavage site of the enzyme.
1. HCMV NO Protease Assay
Material & Methods: Fluorescence measurements were recorded on a Perkin-Elmer LS-50B spectrofluorimeter equipped with a plate reader accessory. UV measurements were recorded on a Thermomax® microplate reader from Molecular Devices Corporation, Menlo Park, Calif., USA.
HCMV NO protease was assayed with an internally quenched fluorogenic substrate based on the maturation cleavage site (Abz-[…](3-NO2)R--OH, kcat /KM =260 M^-1 s^-1). The fluorescence increase upon cleavage of the Ala-Ser amide bond was monitored using excitation λ=312 nm (slit 2.5 nm) and emission λ=415 nm (slit 5 nm). A protocol adaptable to a 96-well plate format was designed for the determination of IC50 values of inhibitors.
After this period, enzymatic hydrolysis of the fluorogenic substrate in the absence of inhibitor led to about a 30% conversion. Quenching was not required before fluorescence measurement since the total scanning time by the plate reader accessory was brief relative to the duration of the reaction. The aqueous incubation buffer contained 50 mM tris(hydroxymethyl)aminomethane.HCl pH 8, 0.5M Na2 SO4, 50 mM NaCl, 0.1 mM EDTA, 1 mM tris(2-carboxyethyl)phosphine.HCl, 3% v/v DMSO and 0.05% w/v casein. The final concentrations of HCMV NO protease (expressed in terms of total monomer concentration) and substrate were 100 nM and 5 μM respectively. IC50 values were obtained through fitting of the inhibition curve to a competitive inhibition model using SAS NLIN procedure. The mode of inhibition was determined by measurements of the initial rates (in cuvettes) at various substrate concentrations in the buffer as described above. The IC50 values listed in the following tables were obtained according to this assay.

[2] = Cytotoxicity, tetrazolium salt (MTT) metabolic assay; assay type: cell-based; settings: cytotoxic effects, read-out: TC50 (the source's name)
Procedure: Cytotoxic effects noted as TC50 in the following tables were determined according to the tetrazolium salt (MTT) metabolic assay, F. Denizot and F. Lang, J. Immun. Meth., 1986, 89, 271.

[3] = Human betaherpesvirus 5, Hs68, 192 h, plaque reduction, HCMV strain AD169, Hs-68 cells, 8 days, read-out: EC50
[4] = Human betaherpesvirus 5, AD169, Hs68, 192 h

| SMILES | EC50 [1, 3] [µM] | IC50 (HCMV NO protease) [µM] | CC50 [2] [µM] | EC50 [1, 4] [µM] |
| --- | --- | --- | --- | --- |
| C[C@@H](NC(=O)N1C(=O)C[C@@H]1CSc1ccccc1)c1ccccc1 [Entry 212] | 31 | 4.4 | > 52 | – |
| CC[C@@H](NC(=O)N1C(=O)[C@@H](C)[C@@H]1CSc1nnnn1C)c1ccccc1 [Entry 119] | 80 | 1.4 | > 250 | – |
| CC[C@@H](NC(=O)N1C(=O)C[C@@H]1CN1CCOCC1)c1ccccc1 [Entry 205] | – | 9.4 | – | – |
| O=C1C[C@H](CSc2ccccc2)N1C(=O)NCc1ccncc1 [Entry 201, 2-oxo-4(R)-(phenylsulfanylmethyl) azetidine-1-carboxylic acid (pyridin-4-ylmethyl)amide] | 75 | 7.9 | > 270 | – |
| CC[C@@H](NC(=O)N1C(=O)[C@@H](C)[C@@H]1CSc1ccccc1)c1ccccc1 [Entry 113] | – | 1.6 | – | – |
| CC[C@@H](NC(=O)N1C(=O)C[C@@H]1COC(=O)c1ccc2ccccc2c1)c1ccccc1 [Entry 133] | – | 0.95 | > 26 | 18 |
| CC[C@@H](NC(=O)N1C(=O)[C@@H](C)[C@@H]1CSc1ccoc1C)c1ccccc1 [Entry 115] | 85 | 4.2 | > 250 | – |
| CC[C@@H](NC(=O)N1C(=O)C[C@@H]1CN(CC)CC)c1ccccc1 [Entry 210] | – | 48 | – | – |
| CN(CC1CCCCO1)C(=O)N1C(=O)C[C@@H]1CSc1ncccn1 (some centres unmarked) [Entry 315] | – | 28 | – | – |
| CC[C@@H](NC(=O)N1C(=O)C[C@@H]1CSc1nccn1C)c1ccccc1 [Entry 140] | – | 0.7 | > 268 | > 268 |
| CC[C@@H](NC(=O)N1C(=O)C[C@@H]1CSc1ccncc1)c1ccccc1 [Entry 107] | 92 | 2 | > 233 | – |
| CC[C@@H](NC(=O)N1C(=O)C[C@@H]1CSc1ccccn1)c1ccccc1 [Entry 103] | 150 | 4 | > 250 | – |
| CN(Cc1ccc2c(c1)OCO2)C(=O)N1C(=O)C[C@@H]1CSc1ncccn1 [Entry 317] | 140 | 9 | > 249 | – |
| CC[C@@H](NC(=O)N1C(=O)[C@@H](C)[C@@H]1CSc1ccc(OC)cc1)c1ccccc1 [Entry 122] | > 250 | 4.8 | > 250 | – |
| O=C1C[C@H](CSc2ncccn2)N1C(=O)N1CCC[C@@H]1c1ccccc1 [Entry 403, 1-(2(R)-phenyl-pyrrolidine-1-carbonyl)-4-(pyrimidin-2-ylsulfanylmethyl)azetidin-2-one] | 95 | 14 | > 250 | – |
| CC[C@@H](NC(=O)N1C(=O)C[C@@H]1CN1CCCCC1)c1ccccc1 [Entry 206, 2-oxo-4(R)-(piperidin-1-ylmethyl)azetidine-1-carboxylic acid (1(R)-phenylpropyl)amide] | > 250 | 3.7 | > 250 | – |
| CC[C@@H](NC(=O)N1C(=O)[C@@H](C)[C@@H]1CSc1nc(C)cc(C)n1)c1ccccc1 [Entry 126] | 25 | 2.8 | > 63 | – |
| CC[C@@H](NC(=O)N1C(=O)C[C@@H]1CSc1nccc(C)n1)c1ccccc1 [Entry 124] | > 250 | 4 | > 250 | – |
| Cn1nnnc1SC[C@H]1CC(=O)N1C(=O)NC1CCc2ccccc21 (some centres unmarked) [Entry 211] | 140 | – | 188 | – |

| SMILES | EC50 [1, 3] [µM] | IC50 (HCMV NO protease) [µM] | CC50 [2] [µM] | EC50 [1, 4] [µM] |
| --- | --- | --- | --- | --- |
| CC[C@@H](NC(=O)N1C(=O)C[C@@H]1COC(=O)Nc1ccccc1)c1ccccc1 [Entry 131] | – | 0.4 | > 32 | 20 |
| CN(Cc1ccccc1)C(=O)N1C(=O)C[C@@H]1CSc1ncccn1 [Entry 318] | 150 | 10 | > 150 | – |
| CC[C@@H](NC(=O)N1C(=O)C[C@@H]1CSc1nc2ncccc2s1)c1ccccc1 [Entry 139] | – | 0.8 | > 53 | > 53 |
| CC[C@@H](NC(=O)N1C(=O)[C@@H](C)[C@@H]1CSc1nc2ncccc2s1)c1ccccc1 [Entry 125] | 140 | 1.1 | > 250 | – |
| CN(Cc1ccc([N+](=O)[O-])cc1)C(=O)N1C(=O)C[C@@H]1CSc1ncccn1 [Entry 322] | > 118 | – | > 118 | – |
| CC(=O)OC[C@H]1CC(=O)N1C(=O)NCc1ccncc1 [Entry 207] | – | 46 | – | – |
| COC(=O)c1ccc(CN(C)C(=O)N2C(=O)C[C@@H]2CSc2nc3ccccc3o2)cc1 [Entry 310] | – | 3.3 | – | – |
| CCSC[C@H]1[C@H](C)C(=O)N1C(=O)N[C@H](CC)c1ccccc1 [Entry 120] | – | 4 | – | – |
| CC[C@@H](NC(=O)N1C(=O)C[C@@H]1COc1cccc(CCC(=O)O)c1)c1ccccc1 [Entry 135] | – | 0.1 | – | – |
| O=C1C[C@H](CS(=O)(=O)c2ccccc2)N1C(=O)NCc1ccccc1 [Entry 203, 2(R)-benzenesulfonylmethyl-4-oxoazetidine-1-carboxylic acid benzyl amide] | – | 24 | – | – |
| O=C1C[C@H](CSc2ncccn2)N1C(=O)N1CCC[C@H]1c1ccccc1 [Entry 402, 1-(2(S)-phenyl-pyrrolidine-1-carbonyl)-4-(pyrimidin-2-ylsulfanylmethyl)azetidin-2-one] | – | 34 | – | – |
| CN(C(=O)N1C(=O)C[C@@H]1CSc1ncccn1)c1ccccc1 [Entry 306] | – | 22 | – | – |
| CC[C@@H](NC(=O)N1C(=O)[C@@H](C)[C@@H]1CSC(C)C)c1ccccc1 [Entry 110] | – | 5.6 | – | – |
| Cn1nnnc1SC[C@H]1CC(=O)N1C(=O)N1CCCC1c1ccccc1[N+](=O)[O-] (some centres unmarked) [Entry 408] | 100 | – | > 133 | – |
| CN(Cc1ccco1)C(=O)N1C(=O)C[C@@H]1CSc1ncccn1 [Entry 303] | – | 17 | – | – |
| CC[C@@H](NC(=O)N1C(=O)C[C@@H]1COc1cccc(CC(=O)O)c1)c1ccccc1 [Entry 136] | – | 0.1 | – | – |
| O=C1C[C@H](C[S+]([O-])c2ccccc2)N1C(=O)NCc1ccccc1 (stereo partly drawn) [Entry 202, 4(R) -benzenesulfinylmethyl-2-oxoazetidine-1-carboxylic acid benzylamide] | – | 13 | – | – |
| O=C(OCc1ccccc1)C1CCCN1C(=O)N1C(=O)C[C@@H]1CSc1ncccn1 (some centres unmarked) [Entry 401] | – | 21 | – | – |
| COC(=O)c1ccc(CN(C)C(=O)N2C(=O)C[C@@H]2CSc2nccn2C)cc1 [Entry 308] | – | 22 | – | – |
